One assay concerns E-selectin. Nature of the assay: U937 cell adhesion to immobilized E-selectin. The assay is classed as cell-based. The settings on record: immobilized E-selectin chimera. The protocol:
U937 cell binding to immobilized E-, L- or P-selectin. […] After blocking the plate with 10% BSA in PBS, P-selectin (0.05 μg/well), L-selectin (4 μg/well) or E-selectin (1 μg/well) chimeras were added. After 1 hr, wells were washed with blocking solution. U937 cells were grown in RPMI-1640 medium (containing 10% fetal bovine serum (FBS), 100 U/ml penicillin and 100 μg/ml streptomycin in an atmosphere of 5% CO2 in air and 100% relative humidity. The cells were fluorescently labeled with 10 μM calcein AM in RPMI 1640 medium containing 2.5% FBS for 30 min at 37° C. The cells were collected by low speed centrifugation, washed three times with RPMI 1640 medium, and resuspended at a density of 2×10^6 cells/mL in medium without FBS. Heparin and test compounds, or 10 mM sodium EDTA (negative control) were added at 50 μL/well, and then the fluorescently labeled U937 cell suspension (50 μL/well) was added and incubated for 30 min at room temperature. Non-adherent cells were removed by rinsing the plates three times with PBS, and the number of adherent cells was quantified by measuring the fluorescence intensity at 485 nm after […] 2% Triton X-100 in 0.1 M Tris-HCl, pH 9.5. Raw data were converted to relative fluorescence intensity (RFI) for comparative purposes.

The subject of assay [1] is neutrophil and macrophage recruitment. Nature of the assay: Thioglycollate induced murine model of peritoneal inflammation. It counts as in vivo, mouse. Conditions: C57BL mice. The protocol:
Acute inflammation was induced in a mouse model by thioglycollate injection into the peritoneal cavity.
Thioglycollate induced murine model of peritoneal inflammation. Mice (C57BL, male, 6-8 weeks old) were injected intraperitoneally with 2 mL of 3% thioglycollate broth. Five minutes later, animals received intravenous injections of 0.2 mL sterile pyrogen-free saline (S) with and without heparin (H) or analogs (3c) (0.5 mg/mouse with 0.2 ml saline). Mice were sacrificed after 3 hours and peritoneal cells harvested by lavage with 8 mL of ice-cold phosphate buffered saline (PBS) containing 3 mM EDTA. Peritoneal cells were counted and cells stained for 30 minutes at 4° C. with FITC-conjugated rat anti-mouse Gr-1 mAb diluted in PBS containing 2.5% FBS. After washing three times with PBS, FACScan analysis was performed as described by Wang et al. (2002) and was used to sort, count and analyze the percentage of neutrophils and macrophages which were converted to the cell number using the formula N/M=Total cell number X % of NIM, respectively (N:Neutrophil; M: Macrophages). The cells were gated (FACS) expressing a high level of Gr-1 antigen (N) and Mac-1 (M). (See additional ref: Lagasse; E., Weissman; I. J. Immunological Meth. 1996, 197, 139-150). Statistical differences among groups were analyzed by ANOVA method using StatView software.

heparin: in the assay on E-selectin, the “inhibitory activity toward E-selectin (U937 cell adhesion)” value is given as “Neither heparin nor 3c exhibited substantial inhibitory activity”. Moreover, in assay [1], the “in vivo activity on inflammatory cell recruitment (in words)” value is “inhibited inflammatory cell recruitment to a similar degree”.

The values are drawn from patent US20080268013A1, “Polyethylene Oxide Polymers Including Anti-Inflammatory Glycodendrons” (EMORY UNIVERSITY, priority 2005, published 2008).
